Target: T1, Neprilysin (Rattus norvegicus, UniProt P07861)
T1 sequence (P07861 whole entry): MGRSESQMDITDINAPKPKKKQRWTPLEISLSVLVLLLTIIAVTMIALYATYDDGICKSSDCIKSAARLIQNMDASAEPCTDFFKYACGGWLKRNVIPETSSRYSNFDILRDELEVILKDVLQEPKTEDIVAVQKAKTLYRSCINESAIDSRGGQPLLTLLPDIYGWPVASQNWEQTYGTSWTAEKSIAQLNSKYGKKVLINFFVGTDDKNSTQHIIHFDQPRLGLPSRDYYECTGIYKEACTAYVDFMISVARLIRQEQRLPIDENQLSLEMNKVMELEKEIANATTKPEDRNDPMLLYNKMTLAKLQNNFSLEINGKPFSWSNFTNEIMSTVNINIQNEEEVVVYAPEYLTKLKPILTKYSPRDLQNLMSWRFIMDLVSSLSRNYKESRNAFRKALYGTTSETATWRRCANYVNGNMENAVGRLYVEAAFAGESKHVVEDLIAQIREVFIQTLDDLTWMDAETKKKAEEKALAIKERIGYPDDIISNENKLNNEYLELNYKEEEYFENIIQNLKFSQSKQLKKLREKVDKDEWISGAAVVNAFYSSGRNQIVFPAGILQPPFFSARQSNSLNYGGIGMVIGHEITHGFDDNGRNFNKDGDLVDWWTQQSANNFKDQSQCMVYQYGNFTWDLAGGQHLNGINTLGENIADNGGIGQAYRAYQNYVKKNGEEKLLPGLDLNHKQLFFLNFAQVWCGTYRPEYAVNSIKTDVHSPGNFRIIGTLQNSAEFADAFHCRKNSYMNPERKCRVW
Test: The compound was tested for its inhibitory activity against neutral endopeptidase ([…]) in rat kidney

Compound | IC50 [µM]
O=C(O)[C@H]1CCC[C@@H](NC(=O)C2(CS)CCCC2)C1 | 0.215
O=C(O)[C@H]1CCC[C@@H](NC(=O)C2(CS)CCCCC2)C1 | 0.31
O=C(N[C@@H]1CCC[C@H](C(=O)O)C1)C(CS)Cc1ccccc1 (stereo not given in full) | 0.18
O=C(O)[C@H](Cc1ccccc1)NC(=O)C1(CS)CCCC1 | 0.22
COCCOC[C@H](CC1(C(=O)N[C@H]2CC[C@@H](C(=O)O)CC2)CCCC1)C(=O)O [CANDOXATRILAT] | 0.038
